Source: the supplement of paper PMC10307832

These cell lines were tested with C1=CC2=C(C=C(C(=C2N=C1)O)N=NC3=CC4=C(C=C3)C=C(C=C4)S(=O)(=O)O)S(=O)(=O)O + Cc1cc(Nc2cc(N3CCN(C)CC3)nc(Sc3ccc(NC(=O)C4CC4)cc3)n2)n[nH]1 [Tozasertib] (partner 0.1 µM) (assay: relative viability (nuclei count vs DMSO), 5 days (fraction); higher = more cells survive). Conditions: first compound 0.08 µM.
How it was run: (§1)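 Values are medians from duplicate plates. Each reflects relative viability, defined as the nuclei count of treated wells over that of vehicle wells. Lung cancer cell lines in 1536-well plates were pin-tool dosed one day after seeding with one drug alone or with a fixed anchor-drug dose plus five library-drug doses (not always all listed) in √10 steps, then fixed, stained and imaged at 4× after 5 days.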

Cell Line | relative viability
LXF-289 | 0.234
NCI-H23 | 0.375
NCI-H647 | 0.49
CAL-12T | 0.29
NCI-H1651 | 0.742
EPLC-272H | 0.351
NCI-H1355 | 0.629
NCI-H3122 | 0.371
NCI-H1437 | 0.421
NCI-H1755 | 0.608
HCC-15 | 0.462
NCI-H1793 | 0.436
PC-14 | 0.607
EKVX | 0.458
LC-2-ad | 0.518
NCI-H1944 | 0.263
NCI-H1975 | 0.772

Same assay, conditions: first compound 0.253 µM

Cell Line | relative viability
HOP-62 | 0.381
LU99A | 0.267
BEN | 0.535
HARA | 0.107
HCC-78 | 0.345
NCI-H322M | 0.468
LCLC-97TM1 | 0.203
A-427 | 0.216
NCI-H441 | 0.685
NCI-H1734 | 0.249
NCI-H460 | 0.381
NCI-H2347 | 0.57
NCI-H1395 | 0.739
201T | 0.901
NCI-H1915 | 0.445
HCC-827 | 0.397
LXF-289 | 0.159

Cell Line | relative viability
NCI-H23 | 0.323
NCI-H647 | 0.279
CAL-12T | 0.34
NCI-H1651 | 0.727
EPLC-272H | 0.365
NCI-H1355 | 0.608
NCI-H3122 | 0.37
NCI-H1437 | 0.392
NCI-H1755 | 0.539
HCC-15 | 0.458
NCI-H1793 | 0.301
PC-14 | 0.574
EKVX | 0.44
LC-2-ad | 0.476
NCI-H1944 | 0.241
NCI-H1975 | 0.753

Same assay, conditions: first compound 0.8 µM

Cell Line | relative viability
HOP-62 | 0.384
LU99A | 0.272
BEN | 0.572
HARA | 0.102
HCC-78 | 0.469
NCI-H322M | 0.433
LCLC-97TM1 | 0.196
A-427 | 0.207
NCI-H441 | 0.644
NCI-H1734 | 0.261
NCI-H460 | 0.559
NCI-H2347 | 0.52
NCI-H1395 | 0.695
201T | 0.987
NCI-H1915 | 0.463
HCC-827 | 0.418
LXF-289 | 0.179

Cell Line | relative viability
NCI-H23 | 0.417
NCI-H647 | 0.308
CAL-12T | 0.378
NCI-H1651 | 0.657
EPLC-272H | 0.203
NCI-H1355 | 0.627
NCI-H3122 | 0.405
NCI-H1437 | 0.407
NCI-H1755 | 0.555
HCC-15 | 0.422
NCI-H1793 | 0.395
PC-14 | 0.55
EKVX | 0.34
LC-2-ad | 0.376
NCI-H1944 | 0.263
NCI-H1975 | 0.754

Same assay, conditions: first compound 2.53 µM

Cell Line | relative viability
HOP-62 | 0.403
LU99A | 0.323
BEN | 0.548
HARA | 0.111
HCC-78 | 0.488
NCI-H322M | 0.496
LCLC-97TM1 | 0.338
A-427 | 0.239
NCI-H441 | 0.712
NCI-H1734 | 0.289
NCI-H460 | 0.543
NCI-H2347 | 0.741
NCI-H1395 | 0.745
201T | 0.967
NCI-H1915 | 0.436
HCC-827 | 0.448
LXF-289 | 0.19

Cell Line | relative viability
NCI-H23 | 0.388
NCI-H647 | 0.231
CAL-12T | 0.327
NCI-H1651 | 0.764
EPLC-272H | 0.273
NCI-H1355 | 0.595
NCI-H3122 | 0.514
NCI-H1437 | 0.408
NCI-H1755 | 0.615
HCC-15 | 0.441
NCI-H1793 | 0.449
PC-14 | 0.646
EKVX | 0.446
LC-2-ad | 0.519
NCI-H1944 | 0.241
NCI-H1975 | 0.736

Same assay, conditions: first compound 8 µM

Cell Line | relative viability
HOP-62 | 0.363
LU99A | 0.273
BEN | 0.47
HARA | 0.117
HCC-78 | 0.349
NCI-H322M | 0.47
LCLC-97TM1 | 0.221
A-427 | 0.252
NCI-H441 | 0.605
NCI-H1734 | 0.238
NCI-H460 | 0.4
NCI-H2347 | 0.573
NCI-H1395 | 0.772
201T | 0.934
NCI-H1915 | 0.437
HCC-827 | 0.432
LXF-289 | 0.228

Cell Line | relative viability
NCI-H23 | 0.401
NCI-H647 | 0.267
CAL-12T | 0.296
NCI-H1651 | 0.562
EPLC-272H | 0.325
NCI-H1355 | 0.641
NCI-H3122 | 0.378
NCI-H1437 | 0.287
NCI-H1755 | 0.577
HCC-15 | 0.45
NCI-H1793 | 0.396
PC-14 | 0.594
EKVX | 0.389
LC-2-ad | 0.325
NCI-H1944 | 0.237
NCI-H1975 | 0.686

These cell lines were tested with C1=CC2=C(C=C(C(=C2N=C1)O)N=NC3=CC4=C(C=C3)C=C(C=C4)S(=O)(=O)O)S(=O)(=O)O + NC(=O)Nc1cc(-c2cccc(F)c2)sc1C(=O)N[C@H]1CCCNC1 [AZD7762] (partner 0.2 µM) in the same assay as above. Conditions: first compound 0.08 µM.
How it was run: as §1

Cell Line | relative viability
HOP-62 | 0.715
LU99A | 0.433
BEN | 0.694
HARA | 0.384
HCC-78 | 0.725
NCI-H322M | 0.576
LCLC-97TM1 | 0.354
A-427 | 0.823
